# From the supplement of paper PMC10307832
# What was measured:
# Assay in all cases: relative viability (nuclei count vs DMSO), 5 days (fraction); higher = more cells survive
# A-427 = tested on: A-427
# In short: (§1)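 Lung cancer cell lines were pin-tool dosed in 1536-well plates on the day after seeding, with either a lone drug or a fixed anchor-drug dose plus five library-drug doses (not always all listed) in √10 steps. Nuclei were counted on 4× images after 5 days. Relative viability is the ratio of treated-well to vehicle-well nuclei counts, with each value a median of duplicate plates.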
# CAL-12T = tested on: CAL-12T
# In short: as §1
# COR-L 105 = tested on: COR-L 105
# In short: as §1
# EMC-BAC-2 = tested on: EMC-BAC-2
# In short: as §1
# HARA = tested on: HARA
# In short: as §1
# HCC-366 = tested on: HCC-366
# In short: as §1
# HCC-827 = tested on: HCC-827
# In short: as §1
# HOP-62 = tested on: HOP-62
# In short: as §1
# LCLC-103H = tested on: LCLC-103H
# In short: as §1
# NCI-H1395 = tested on: NCI-H1395
# In short: as §1
# NCI-H1437 = tested on: NCI-H1437
# In short: as §1
# NCI-H1755 = tested on: NCI-H1755
# In short: as §1
# NCI-H1792 = tested on: NCI-H1792
# In short: as §1
# NCI-H1915 = tested on: NCI-H1915
# In short: as §1
# NCI-H2009 = tested on: NCI-H2009
# In short: as §1
# NCI-H2228 = tested on: NCI-H2228
# In short: as §1
# NCI-H23 = tested on: NCI-H23
# In short: as §1
# NCI-H460 = tested on: NCI-H460
# In short: as §1
# NCI-H727 = tested on: NCI-H727
# In short: as §1
# SK-LU-1 = tested on: SK-LU-1
# In short: as §1
# SW 1573 = tested on: SW 1573
# In short: as §1
smiles,measurement,setting,value
Cc1sc2c(c1C)C(c1ccc(Cl)cc1)=N[C@@H](CC(=O)OC(C)(C)C)c1nnc(C)n1-2 [JQ1] + C[C@]1(O)C[C@@H](c2nc(-c3ccc4ccc(-c5ccccc5)nc4c3)c3c(N)nccn32)C1 [Linsitinib] (partner 1 µM),relative viability,A-427; first compound 0.04 µM,1.19
same,relative viability,A-427; first compound 0.1265 µM,1.04
same,relative viability,A-427; first compound 0.4 µM,1.14
same,relative viability,A-427; first compound 1.265 µM,1.06
same,relative viability,A-427; first compound 4 µM,0.721
same,relative viability,CAL-12T; first compound 0.04 µM,0.793
same,relative viability,CAL-12T; first compound 0.1265 µM,0.794
same,relative viability,CAL-12T; first compound 0.4 µM,0.68
same,relative viability,CAL-12T; first compound 1.265 µM,0.275
same,relative viability,CAL-12T; first compound 4 µM,0.232
same,relative viability,COR-L 105; first compound 0.04 µM,0.868
same,relative viability,COR-L 105; first compound 0.1265 µM,0.579
same,relative viability,COR-L 105; first compound 0.4 µM,0.349
same,relative viability,COR-L 105; first compound 1.265 µM,0.299
same,relative viability,COR-L 105; first compound 4 µM,0.319
same,relative viability,EMC-BAC-2; first compound 0.04 µM,0.815
same,relative viability,EMC-BAC-2; first compound 0.1265 µM,0.812
same,relative viability,EMC-BAC-2; first compound 0.4 µM,0.659
same,relative viability,EMC-BAC-2; first compound 1.265 µM,0.444
same,relative viability,EMC-BAC-2; first compound 4 µM,0.47
same,relative viability,HARA; first compound 0.04 µM,0.902
same,relative viability,HARA; first compound 0.1265 µM,0.624
same,relative viability,HARA; first compound 0.4 µM,0.399
same,relative viability,HARA; first compound 1.265 µM,0.205
same,relative viability,HARA; first compound 4 µM,0.163
same,relative viability,HCC-366; first compound 0.04 µM,0.6
same,relative viability,HCC-366; first compound 0.4 µM,0.639
same,relative viability,HCC-366; first compound 1.265 µM,0.326
same,relative viability,HCC-366; first compound 4 µM,0.193
same,relative viability,HCC-827; first compound 0.04 µM,0.921
same,relative viability,HCC-827; first compound 0.4 µM,1.16
same,relative viability,HCC-827; first compound 1.265 µM,0.958
same,relative viability,HCC-827; first compound 4 µM,0.862
same,relative viability,HOP-62; first compound 0.04 µM,1.01
same,relative viability,HOP-62; first compound 0.1265 µM,0.869
same,relative viability,HOP-62; first compound 0.4 µM,0.694
same,relative viability,HOP-62; first compound 1.265 µM,0.11
same,relative viability,HOP-62; first compound 4 µM,0.106
same,relative viability,LCLC-103H; first compound 0.04 µM,1.01
same,relative viability,LCLC-103H; first compound 0.1265 µM,0.751
same,relative viability,LCLC-103H; first compound 0.4 µM,0.805
same,relative viability,LCLC-103H; first compound 1.265 µM,0.608
same,relative viability,LCLC-103H; first compound 4 µM,0.456
same,relative viability,NCI-H1395; first compound 0.04 µM,0.983
same,relative viability,NCI-H1395; first compound 0.1265 µM,0.797
same,relative viability,NCI-H1395; first compound 0.4 µM,0.788
same,relative viability,NCI-H1395; first compound 1.265 µM,0.562
same,relative viability,NCI-H1395; first compound 4 µM,0.486
same,relative viability,NCI-H1437; first compound 0.04 µM,0.897
same,relative viability,NCI-H1437; first compound 0.1265 µM,0.804
same,relative viability,NCI-H1437; first compound 0.4 µM,0.481
same,relative viability,NCI-H1437; first compound 1.265 µM,0.228
same,relative viability,NCI-H1437; first compound 4 µM,0.18
same,relative viability,NCI-H1755; first compound 0.04 µM,0.985
same,relative viability,NCI-H1755; first compound 0.1265 µM,0.987
same,relative viability,NCI-H1755; first compound 0.4 µM,1.01
same,relative viability,NCI-H1755; first compound 1.265 µM,0.763
same,relative viability,NCI-H1755; first compound 4 µM,0.709
same,relative viability,NCI-H1792; first compound 0.04 µM,0.587
same,relative viability,NCI-H1792; first compound 0.4 µM,0.569
same,relative viability,NCI-H1792; first compound 1.265 µM,0.31
same,relative viability,NCI-H1792; first compound 4 µM,0.274
same,relative viability,NCI-H1915; first compound 0.04 µM,1.15
same,relative viability,NCI-H1915; first compound 0.1265 µM,0.966
same,relative viability,NCI-H1915; first compound 0.4 µM,1.08
same,relative viability,NCI-H1915; first compound 1.265 µM,0.652
same,relative viability,NCI-H1915; first compound 4 µM,0.383
same,relative viability,NCI-H2009; first compound 0.04 µM,1.13
same,relative viability,NCI-H2009; first compound 0.1265 µM,0.995
same,relative viability,NCI-H2009; first compound 0.4 µM,0.724
same,relative viability,NCI-H2009; first compound 1.265 µM,0.279
same,relative viability,NCI-H2009; first compound 4 µM,0.263
same,relative viability,NCI-H2228; first compound 0.04 µM,1
same,relative viability,NCI-H2228; first compound 0.1265 µM,0.743
same,relative viability,NCI-H2228; first compound 0.4 µM,0.688
same,relative viability,NCI-H2228; first compound 1.265 µM,0.404
same,relative viability,NCI-H2228; first compound 4 µM,0.357
same,relative viability,NCI-H23; first compound 0.04 µM,0.513
same,relative viability,NCI-H23; first compound 0.1265 µM,0.555
same,relative viability,NCI-H23; first compound 0.4 µM,0.385
same,relative viability,NCI-H23; first compound 1.265 µM,0.339
same,relative viability,NCI-H23; first compound 4 µM,0.288
same,relative viability,NCI-H460; first compound 0.04 µM,0.661
same,relative viability,NCI-H460; first compound 0.1265 µM,0.54
same,relative viability,NCI-H460; first compound 0.4 µM,0.278
same,relative viability,NCI-H460; first compound 1.265 µM,0.0494
same,relative viability,NCI-H460; first compound 4 µM,0.0357
same,relative viability,NCI-H727; first compound 0.04 µM,0.374
same,relative viability,NCI-H727; first compound 0.1265 µM,0.313
same,relative viability,NCI-H727; first compound 0.4 µM,0.343
same,relative viability,NCI-H727; first compound 1.265 µM,0.244
same,relative viability,NCI-H727; first compound 4 µM,0.234
same,relative viability,SK-LU-1; first compound 0.04 µM,1.16
same,relative viability,SK-LU-1; first compound 0.1265 µM,0.952
same,relative viability,SK-LU-1; first compound 0.4 µM,0.782
same,relative viability,SK-LU-1; first compound 1.265 µM,0.239
same,relative viability,SK-LU-1; first compound 4 µM,0.178
same,relative viability,SW 1573; first compound 0.04 µM,0.697
same,relative viability,SW 1573; first compound 0.1265 µM,0.789
same,relative viability,SW 1573; first compound 0.4 µM,0.711
same,relative viability,SW 1573; first compound 1.265 µM,0.339
same,relative viability,SW 1573; first compound 4 µM,0.323
